{"source": "ChEMBL document CHEMBL1139723", "about": "“Novel imidazole-based combretastatin A-4 analogues: evaluation of their in vitro antitumor activity and molecular modeling study of their binding to the colchicine site of tubulin” (Bioorg Med Chem Lett, 2006)", "key": {"[1]": {"test": "Cytotoxicity against NCI60 cell line", "type": "cell-based", "conditions": "human"}, "[2]": {"test": "Cytotoxicity against NCI-H460 cells", "type": "cell-based", "conditions": "human"}, "[3]": {"test": "Cytotoxicity against MDR HCT15 cells", "type": "cell-based", "conditions": "human, MDR HCT-15 cells"}, "HCC 2998": {"tested_on": "HCC 2998", "test": "Tumor growth inhibition against HCC2998 cells", "type": "functional", "conditions": "Homo sapiens, read-out: Log TGI (converted)"}, "HL-60": {"tested_on": "HL-60", "test": "Tumor growth inhibition against HL60 cells", "type": "functional", "conditions": "Homo sapiens, read-out: Log TGI (converted)"}, "[4]": {"test": "Tumor growth inhibition of […] cells xenografted in immunodeficient mouse at 150 mg/kg/day after 25 days", "type": "functional", "conditions": "Homo sapiens, 600 h"}}}
{"smiles": "COc1ccc(-c2nccn2-c2cc(OC)c(OC)c(OC)c2)cc1", "values": [{"measurement": "Log TGI", "setting": "[1]", "result": -4.16}, {"measurement": "pGI50", "setting": "[1]", "result": 5.34}, {"measurement": "GI50", "setting": "[2]", "result": 1.58, "unit": "µM"}, {"measurement": "GI50", "setting": "[3]", "result": 1.15, "unit": "µM"}]}
{"smiles": "COc1ccc(-c2cncn2-c2ccc(OC)cc2)cc1", "values": [{"measurement": "Log TGI", "setting": "[1]", "result": -4.32}, {"measurement": "pGI50", "setting": "[1]", "result": 4.8}, {"measurement": "GI50", "setting": "[2]", "result": 15.5, "unit": "µM"}, {"measurement": "GI50", "setting": "[3]", "result": 19.5, "unit": "µM"}]}
{"smiles": "COc1cc(-n2cncc2-c2ccc3ccccc3c2)cc(OC)c1OC", "values": [{"measurement": "Log TGI", "setting": "[1]", "result": -4.4}, {"measurement": "pGI50", "setting": "[1]", "result": 7.14}, {"measurement": "GI50", "setting": "[2]", "result": 0.018, "unit": "µM"}, {"measurement": "TGI", "setting": "HCC 2998", "result": 0.0295, "unit": "µM"}, {"measurement": "GI50", "setting": "[3]", "result": 0.017, "unit": "µM"}]}
{"smiles": "COc1cc(-c2nccn2-c2ccc3ccccc3c2)cc(OC)c1OC", "values": [{"measurement": "Log TGI", "setting": "[1]", "result": -4.8}, {"measurement": "pGI50", "setting": "[1]", "result": 6.86}, {"measurement": "GI50", "setting": "[2]", "result": 0.021, "unit": "µM"}, {"measurement": "GI50", "setting": "[3]", "result": 0.022, "unit": "µM"}]}
{"smiles": "COc1cc(-n2ccnc2-c2ccc3ccccc3c2)cc(OC)c1OC", "values": [{"measurement": "Log TGI", "setting": "[1]", "result": -4.68}, {"measurement": "pGI50", "setting": "[1]", "result": 6.82}, {"measurement": "GI50", "setting": "[2]", "result": 0.037, "unit": "µM"}, {"measurement": "GI50", "setting": "[3]", "result": 0.051, "unit": "µM"}]}
{"smiles": "COc1ccc(-n2ccnc2-c2cc(OC)c(OC)c(OC)c2)cc1", "values": [{"measurement": "Log TGI", "setting": "[1]", "result": -4.32}, {"measurement": "pGI50", "setting": "[1]", "result": 5.45}, {"measurement": "GI50", "setting": "[2]", "result": 2.34, "unit": "µM"}, {"measurement": "GI50", "setting": "[3]", "result": 1.15, "unit": "µM"}]}
{"smiles": "COc1ccc(-c2cncn2-c2cc(OC)c(OC)c(OC)c2)cc1F", "values": [{"measurement": "TGI", "setting": "HL-60", "result": "< 0.0288", "unit": "µM"}, {"measurement": "Log TGI", "setting": "[1]", "result": -4.51}, {"measurement": "pGI50", "setting": "[1]", "result": 7.4}, {"measurement": "GI50", "setting": "[2]", "result": "< 0.01", "unit": "µM"}, {"measurement": "GI50", "setting": "[3]", "result": "< 0.01", "unit": "µM"}]}
{"smiles": "COc1ccc(-c2cncn2-c2cc(OC)c(OC)c(OC)c2)cc1", "values": [{"measurement": "Log TGI", "setting": "[1]", "result": -4.71}, {"measurement": "pGI50", "setting": "[1]", "result": 6.59}, {"measurement": "inhibition in vivo at 150 mg/kg/day", "setting": "[4]", "result": 52, "unit": "%"}, {"measurement": "GI50", "setting": "[2]", "result": 0.363, "unit": "µM"}, {"measurement": "GI50", "setting": "[3]", "result": 0.17, "unit": "µM"}]}
{"smiles": "COc1ccc(-c2nccn2-c2ccc(OC)cc2)cc1", "values": [{"measurement": "Log TGI", "setting": "[1]", "result": -4.19}, {"measurement": "pGI50", "setting": "[1]", "result": 4.76}, {"measurement": "GI50", "setting": "[2]", "result": 17.8, "unit": "µM"}, {"measurement": "GI50", "setting": "[3]", "result": 22.9, "unit": "µM"}]}
{"smiles": "COc1ccc(/C=C\\c2cc(OC)c(OC)c(OC)c2)cc1O", "note": "[COMBRETASTATIN A4]", "values": [{"measurement": "Log TGI", "setting": "[1]", "result": -5.03}, {"measurement": "pGI50", "setting": "[1]", "result": 7}, {"measurement": "GI50", "setting": "[2]", "result": "< 0.01", "unit": "µM"}, {"measurement": "GI50", "setting": "[3]", "result": "< 0.01", "unit": "µM"}]}
